{"source": "patent US9932637B2", "about": "“Genetic polymorphisms associated with cardiovascular disorders and drug response, methods of detection and uses thereof” (CELERA CORPORATION, priority 2003, dated 2018)", "tested_on": "patients with prior myocardial infarction (CARE study)", "assay": "CARE: association of SNPs with pravastatin treatment in cardiovascular events prevention (logistic regression, odds ratio pravastatin vs placebo by genotype; Table 8)", "format": "in vivo, human", "details": "for Fatal/Non-fatal Cerebrovascular Disease, Prava vs. Placebo Odds Ratio (95% CI): ABCA1 hCV2741051, All Patients; for 1st Stroke Occurred During CARE, n/total (%) / Any Report of Stroke During CARE, n/total (%) / Fatal/Non-fatal Cerebrovascular Disease, n/total (%) / Prava vs. Placebo Odds Ratio, 0 Rare Alleles / Prava vs. Placebo Odds Ratio, 1 Rare Alleles / Prava vs. Placebo Odds Ratio, 2 Rare Alleles / Odds ratio pravastatin vs placebo / Fatal CHD/Definite Non-fatal MI, n/total (%) / Hosp. for Unstable Angina, n/total (%) / Total Coronary Heart Disease Events, n/total (%): All Patients; for 1st Stroke Occurred During CARE, n/total (%) / Any Report of Stroke During CARE, n/total (%) / Fatal/Non-fatal Cerebrovascular Disease, n/total (%) / Fatal CHD/Definite Non-fatal MI, n/total (%) / Hosp. for Unstable Angina, n/total (%) / Total Coronary Heart Disease Events, n/total (%): Prava; for Catheterization, n/total (%): ABCC8 hCV600632, All Patients; for Catheterization, n/total (%) / Nonfatal MI (Probable/Definite), n/total (%) / Nonfatal MI (def & prob), n/total (%): Prava arm", "description": "In order to identify genetic markers associated with acute coronary events (e.g. MI, stroke, unstable angina, congestive heart failure, etc.) or response to statin treatment for the prevention of coronary events, samples from the Cholesterol and Recurrent Events (CARE) study (a randomized multicentral double-blinded trial on secondary prevention of acute coronary events with pravastatin) (Sacks et al., 1991, Am. J. Cardiol. 68: 1436-1446) were genotyped. A well-documented myocardial infarction (MI) was one of the enrollment criteria for entry into the CARE study. Patients were enrolled in the CARE trial from 80 participating study centers. […] Patients were randomized to receive either 40 mg of pravastatin once daily or a matching placebo. The primary endpoint of the trial was death from coronary heart disease and the median duration of follow-up was 5.0 years (range, 4.0 to 6.2 years). […] Secondary endpoints of other related cardiovascular or metabolic disease events, and changes in clinical variables were also recorded in pravastatin-treated and placebo groups. All individuals included in the study had signed a written informed consent form and the study protocol was approved by the respective Institutional Review Boards (IRBs).\nFor genotyping SNPs in CARE patient samples, DNA was extracted from blood samples using conventional DNA extraction methods such as the QIA-amp kit from Qiagen. Genotypes were obtained on an ABI PRISM® 7900HT Sequence Detection PCR system (Applied Biosystems, Foster City, Calif.) by kinetic allele-specific PCR, similar to the method described by Germer et al. (Germer S., Holland M. J., Higuchi R. 2000, Genome Res. 10: 258-266).\nStatistical analysis for association of SNPs with pravastatin treatment in cardiovascular events prevention (Table 8) was carried out using an overall logistic regression model that included an intercept, a parameter for the effect of a genotype containing two rare alleles versus a genotype containing no rare alleles, a parameter for the effect of a genotype containing one rare allele versus a genotype containing no rare alleles, a parameter for the effect of use of pravastatin versus the use of placebo, and parameters for the interaction effects between SNP genotypes and pravastatin use. The test of the overall model is a chi-square test with two degrees of freedom for analyses containing all three genotypes, and one degree of freedom for analyses containing two genotypes.\nEffect sizes were estimated through odds ratios (pravastatin group versus placebo) for carriers of each genotype (groups of 0, 1, and 2 minor allele carriers). The effect was considered to be significant if p-value for testing whether any of the interactions between SNP genotypes and pravastatin use were <0.05. […] Odds ratios less than one indicate that the specific SNP allele has a protective effect and odds ratios greater than one indicate that the specific SNP allele has an adverse effect.", "key": {"[1]": {"details": "ABCA1 hCV2741051, 1 Rare Allele, n/total 5/651"}, "[2]": {"details": "ABCA1 hCV2741051, 1st Stroke Occurred During CARE"}, "[3]": {"details": "ABCA1 hCV2741051, 2 Rare Alleles, n/total 2/127"}, "[4]": {"details": "ABCA1 hCV2741051, Any Report of Stroke During CARE"}, "[5]": {"details": "ADAMTS13 hCV11571465, All Patients, 0 Rare Alleles"}, "[6]": {"details": "ADAMTS13 hCV11571465, All Patients, 1 Rare Allele"}, "[7]": {"details": "ADAMTS13 hCV11571465, All Patients, 2 Rare Alleles"}, "[8]": {"details": "AGTR1 hCV3187716, Fatal CHD/Definite Non-fatal MI"}, "[9]": {"details": "AGTR1 hCV3187716, Hosp. for Unstable Angina"}, "[10]": {"details": "AGTR1 hCV3187716, Total Coronary Heart Disease Events"}}, "data": [{"smiles": "CC[C@H](C)C(=O)O[C@H]1C[C@H](O)C=C2C=C[C@H](C)[C@H](CC[C@@H](O)C[C@@H](O)CC(=O)O)[C@H]21", "note": "[pravastatin]", "values": [{"measurement": "Fatal/Non-fatal Cerebrovascular Disease, Prava vs. Placebo Odds Ratio (95% CI)", "setting": "0 Rare Alleles", "result": 0.98}, {"measurement": "Fatal/Non-fatal Cerebrovascular Disease, Prava vs. Placebo Odds Ratio (95% CI)", "setting": "1 Rare Alleles", "result": 0.43}, {"measurement": "Fatal/Non-fatal Cerebrovascular Disease, Prava vs. Placebo Odds Ratio (95% CI)", "setting": "2 Rare Alleles", "result": 0.26}, {"measurement": "1st Stroke Occurred During CARE, n/total (%)", "setting": "ABCA1 hCV2741051, 0 Rare Alleles, n/total 26/730", "result": "(3.6%)"}, {"measurement": "Any Report of Stroke During CARE, n/total (%)", "setting": "ABCA1 hCV2741051, 0 Rare Alleles, n/total 27/730", "result": "(3.7%)"}, {"measurement": "Fatal/Non-fatal Cerebrovascular Disease, n/total (%)", "setting": "ABCA1 hCV2741051, 0 Rare Alleles, n/total 51/730", "result": "(7.0%)"}, {"measurement": "1st Stroke Occurred During CARE, n/total (%)", "setting": "[1]", "result": "(0.8%)"}, {"measurement": "Any Report of Stroke During CARE, n/total (%)", "setting": "[1]", "result": "(0.8%)"}, {"measurement": "Fatal/Non-fatal Cerebrovascular Disease, n/total (%)", "setting": "ABCA1 hCV2741051, 1 Rare Allele, n/total 18/651", "result": "(2.8%)"}, {"measurement": "Prava vs. Placebo Odds Ratio, 0 Rare Alleles", "setting": "[2]", "result": 0.98}, {"measurement": "Prava vs. Placebo Odds Ratio, 1 Rare Alleles", "setting": "[2]", "result": 0.26}, {"measurement": "Prava vs. Placebo Odds Ratio, 2 Rare Alleles", "setting": "[2]", "result": 0.23}, {"measurement": "1st Stroke Occurred During CARE, n/total (%)", "setting": "[3]", "result": "(1.6%)"}, {"measurement": "Any Report of Stroke During CARE, n/total (%)", "setting": "[3]", "result": "(1.6%)"}, {"measurement": "Fatal/Non-fatal Cerebrovascular Disease, n/total (%)", "setting": "ABCA1 hCV2741051, 2 Rare Alleles, n/total 3/127", "result": "(2.4%)"}, {"measurement": "Prava vs. Placebo Odds Ratio, 0 Rare Alleles", "setting": "[4]", "result": 0.92}, {"measurement": "Prava vs. Placebo Odds Ratio, 1 Rare Alleles", "setting": "[4]", "result": 0.21}, {"measurement": "Prava vs. Placebo Odds Ratio, 2 Rare Alleles", "setting": "[4]", "result": 0.23}, {"measurement": "Catheterization, n/total (%)", "setting": "0 Rare Alleles", "result": "(12.0%)"}, {"measurement": "Catheterization, n/total (%)", "setting": "1 Rare Allele", "result": "(8.8%)"}, {"measurement": "Catheterization, n/total (%)", "setting": "2 Rare Alleles", "result": "(10.2%)"}, {"measurement": "Odds ratio pravastatin vs placebo", "setting": "ABCC8 hCV600632, Catheterization, 0 rare alleles", "result": 1.21}, {"measurement": "Odds ratio pravastatin vs placebo", "setting": "ABCC8 hCV600632, Catheterization, 1 rare allele", "result": 0.55}, {"measurement": "Odds ratio pravastatin vs placebo", "setting": "ABCC8 hCV600632, Catheterization, 2 rare alleles", "result": 0.81}, {"measurement": "Nonfatal MI (Probable/Definite), n/total (%)", "setting": "[5]", "result": "(9.1%)"}, {"measurement": "Nonfatal MI (def & prob), n/total (%)", "setting": "[5]", "result": "(9.1%)"}, {"measurement": "Nonfatal MI (Probable/Definite), n/total (%)", "setting": "[6]", "result": "(10.3%)"}, {"measurement": "Nonfatal MI (def & prob), n/total (%)", "setting": "[6]", "result": "(9.6%)"}, {"measurement": "Nonfatal MI (Probable/Definite), n/total (%)", "setting": "[7]", "result": "(6.6%)"}, {"measurement": "Nonfatal MI (def & prob), n/total (%)", "setting": "[7]", "result": "(6.2%)"}, {"measurement": "Odds ratio pravastatin vs placebo", "setting": "ADAMTS13 hCV11571465, Nonfatal MI (Probable/Definite), 0 rare alleles", "result": 0.62}, {"measurement": "Odds ratio pravastatin vs placebo", "setting": "ADAMTS13 hCV11571465, Nonfatal MI (Probable/Definite), 1 rare allele", "result": 0.88}, {"measurement": "Odds ratio pravastatin vs placebo", "setting": "ADAMTS13 hCV11571465, Nonfatal MI (Probable/Definite), 2 rare alleles", "result": 0.38}, {"measurement": "Odds ratio pravastatin vs placebo", "setting": "ADAMTS13 hCV11571465, Nonfatal MI (def & prob), 0 rare alleles", "result": 0.65}, {"measurement": "Odds ratio pravastatin vs placebo", "setting": "ADAMTS13 hCV11571465, Nonfatal MI (def & prob), 1 rare allele", "result": 0.91}, {"measurement": "Odds ratio pravastatin vs placebo", "setting": "ADAMTS13 hCV11571465, Nonfatal MI (def & prob), 2 rare alleles", "result": 0.37}, {"measurement": "Fatal CHD/Definite Non-fatal MI, n/total (%)", "setting": "AGTR1 hCV3187716, 0 Rare Alleles, n/total 63/769", "result": "(8.2%)"}, {"measurement": "Hosp. for Unstable Angina, n/total (%)", "setting": "AGTR1 hCV3187716, 0 Rare Alleles, n/total 120/769", "result": "(15.6%)"}, {"measurement": "Total Coronary Heart Disease Events, n/total (%)", "setting": "AGTR1 hCV3187716, 0 Rare Alleles, n/total 227/769", "result": "(29.5%)"}, {"measurement": "Fatal CHD/Definite Non-fatal MI, n/total (%)", "setting": "AGTR1 hCV3187716, 1 Rare Allele, n/total 72/625", "result": "(11.5%)"}, {"measurement": "Hosp. for Unstable Angina, n/total (%)", "setting": "AGTR1 hCV3187716, 1 Rare Allele, n/total 103/625", "result": "(16.5%)"}, {"measurement": "Total Coronary Heart Disease Events, n/total (%)", "setting": "AGTR1 hCV3187716, 1 Rare Allele, n/total 194/625", "result": "(31.0%)"}, {"measurement": "Fatal CHD/Definite Non-fatal MI, n/total (%)", "setting": "AGTR1 hCV3187716, 2 Rare Alleles, n/total 5/120", "result": "(4.2%)"}, {"measurement": "Hosp. for Unstable Angina, n/total (%)", "setting": "AGTR1 hCV3187716, 2 Rare Alleles, n/total 8/120", "result": "(6.7%)"}, {"measurement": "Total Coronary Heart Disease Events, n/total (%)", "setting": "AGTR1 hCV3187716, 2 Rare Alleles, n/total 20/120", "result": "(16.7%)"}, {"measurement": "Prava vs. Placebo Odds Ratio, 0 Rare Alleles", "setting": "[8]", "result": 0.63}, {"measurement": "Prava vs. Placebo Odds Ratio, 1 Rare Alleles", "setting": "[8]", "result": 0.95}, {"measurement": "Prava vs. Placebo Odds Ratio, 2 Rare Alleles", "setting": "[8]", "result": 0.24}, {"measurement": "Prava vs. Placebo Odds Ratio, 0 Rare Alleles", "setting": "[9]", "result": 0.89}, {"measurement": "Prava vs. Placebo Odds Ratio, 1 Rare Alleles", "setting": "[9]", "result": 0.90}, {"measurement": "Prava vs. Placebo Odds Ratio, 2 Rare Alleles", "setting": "[9]", "result": 0.27}, {"measurement": "Prava vs. Placebo Odds Ratio, 0 Rare Alleles", "setting": "[10]", "result": 0.80}, {"measurement": "Prava vs. Placebo Odds Ratio, 1 Rare Alleles", "setting": "[10]", "result": 0.82}, {"measurement": "Prava vs. Placebo Odds Ratio, 2 Rare Alleles", "setting": "[10]", "result": 0.38}, {"measurement": "Nonfatal MI (Probable/Definite), n/total (%)", "setting": "APOE hCV905013, All Patients, 0 Rare Alleles", "result": "(8.4%)"}, {"measurement": "Nonfatal MI (Probable/Definite), n/total (%)", "setting": "APOE hCV905013, All Patients, 1 Rare Allele", "result": "(10.4%)"}, {"measurement": "Nonfatal MI (Probable/Definite), n/total (%)", "setting": "APOE hCV905013, All Patients, 2 Rare Alleles", "result": "(7.8%)"}, {"measurement": "Odds ratio pravastatin vs placebo", "setting": "APOE hCV905013, Nonfatal MI (Probable/Definite), 0 rare alleles", "result": 0.51}]}]}
